Reference: PubChem BioAssay AID2060620 (Molecular Pharmacology Branch, DTP, NCI, 2025)

System: 328373-195-R-J1-PDC complex spheroids, viability % test/control
Test: Anticancer human tumor 328373-195-R-J1-PDC patient-derived head and neck squamous carcinoma cell line growth inhibition [CLK]
Details: for IC50: curve of first compound; for viability, T/C: stronger effect = lower value
Method in brief: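 Patient-derived tumor cells grown as complex spheroids with HUVEC endothelial cells and mesenchymal stem cells, treated with drug combinations. Concentrations descend in half-log steps from near clinical Cmax, or from 10 microM if Cmax unknown.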

[1] = second compound 0.0316 µM, first compound 0.0316 µM
[2] = second compound 0.0316 µM, first compound 0.1 µM
[3] = second compound 0.0316 µM, first compound 0.316 µM
[4] = second compound 0.0316 µM, first compound 1 µM
[5] = second compound 0.1 µM, first compound 0.0316 µM
[6] = second compound 0.1 µM, first compound 0.1 µM
[7] = second compound 0.1 µM, first compound 0.316 µM
[8] = second compound 0.1 µM, first compound 1 µM
[9] = second compound 0.316 µM, first compound 0.0316 µM
[10] = second compound 0.316 µM, first compound 0.1 µM
[11] = second compound 0.316 µM, first compound 0.316 µM
[12] = second compound 0.316 µM, first compound 1 µM
[13] = second compound 1 µM, first compound 0.0316 µM
[14] = second compound 1 µM, first compound 0.1 µM
[15] = second compound 1 µM, first compound 0.316 µM
[16] = second compound 1 µM, first compound 1 µM
[17] = second compound 3.16 µM, first compound 0.0316 µM
[18] = second compound 3.16 µM, first compound 0.1 µM
[19] = second compound 3.16 µM, first compound 0.316 µM
[20] = second compound 3.16 µM, first compound 1 µM
[21] = second compound 10 µM, first compound 0.0316 µM
[22] = second compound 10 µM, first compound 0.1 µM
[23] = second compound 10 µM, first compound 0.316 µM
[24] = second compound 10 µM, first compound 1 µM
[25] = second compound 0.0316 µM, first compound 0.00316 µM
[26] = second compound 0.0316 µM, first compound 0.01 µM
[27] = second compound 0.1 µM, first compound 0.00316 µM
[28] = second compound 0.1 µM, first compound 0.01 µM
[29] = second compound 0.316 µM, first compound 0.00316 µM
[30] = second compound 0.316 µM, first compound 0.01 µM
[31] = second compound 1 µM, first compound 0.00316 µM
[32] = second compound 1 µM, first compound 0.01 µM
[33] = second compound 3.16 µM, first compound 0.00316 µM
[34] = second compound 3.16 µM, first compound 0.01 µM
[35] = second compound 10 µM, first compound 0.00316 µM
[36] = second compound 10 µM, first compound 0.01 µM
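Also: spheroids exposed to the agents for 7 days.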

CC(Nc1ccc2c(c1)OCCn1cc(N3C(=O)OCC3C(F)F)nc1-2)C(N)=O (stereo unspecified) + CNC(=O)c1ccc(Nc2nc(OC3CCCC3)c3c(-c4ccc5nc(C)oc5c4)c[nH]c3n2)c(OC)c1
IC50 (second compound 0.0316 µM): 5300 nM | IC50 (second compound 0.1 µM): < 31.6 nM | IC50 (second compound 0.316 µM): < 31.6 nM | IC50 (second compound 1 µM): < 31.6 nM | IC50 (second compound 3.16 µM): < 31.6 nM | IC50 (second compound 10 µM): < 31.6 nM | viability, T/C [1]: 64.5% | viability, T/C [2]: 63% | viability, T/C [3]: 56.1% | viability, T/C [4]: 61.7% | viability, T/C (second compound 0.0316 µM, first compound 3.16 µM): 57% | viability, T/C (second compound 0.0316 µM, first compound 10 µM): 41.6% | viability, T/C [5]: 12.4% | viability, T/C [6]: 12.9% | viability, T/C [7]: 11.3% | viability, T/C [8]: 13.8% | viability, T/C (second compound 0.1 µM, first compound 3.16 µM): 10.4% | viability, T/C (second compound 0.1 µM, first compound 10 µM): 10.2% | viability, T/C [9]: 10.3% | viability, T/C [10]: 11% | viability, T/C [11]: 12.6% | viability, T/C [12]: 9.39% | viability, T/C (second compound 0.316 µM, first compound 3.16 µM): 9.16% | viability, T/C (second compound 0.316 µM, first compound 10 µM): 11.8% | viability, T/C [13]: 12% | viability, T/C [14]: 10.1% | viability, T/C [15]: 9.86% | viability, T/C [16]: 10.9% | viability, T/C (second compound 1 µM, first compound 3.16 µM): 10.3% | viability, T/C (second compound 1 µM, first compound 10 µM): 10.2% | viability, T/C [17]: 11.7% | viability, T/C [18]: 11% | viability, T/C [19]: 11.4% | viability, T/C [20]: 8.89% | viability, T/C (second compound 3.16 µM, first compound 3.16 µM): 13.5% | viability, T/C (second compound 3.16 µM, first compound 10 µM): 8.5% | viability, T/C [21]: 11.8% | viability, T/C [22]: 11.6% | viability, T/C [23]: 10.7% | viability, T/C [24]: 11.9% | viability, T/C (second compound 10 µM, first compound 3.16 µM): 13.7% | viability, T/C (second compound 10 µM, first compound 10 µM): 11%

CCN1CCN(Cc2ccc(Nc3ncc(F)c(-c4cc(F)c5nc(C)n(C(C)C)c5c4)n3)nc2)CC1 + CNC(=O)c1ccc(Nc2nc(OC3CCCC3)c3c(-c4ccc5nc(C)oc5c4)c[nH]c3n2)c(OC)c1
IC50 (second compound 0.0316 µM): 54.9 nM | IC50 (second compound 0.1 µM): < 3.16 nM | IC50 (second compound 0.316 µM): < 3.16 nM | IC50 (second compound 1 µM): < 3.16 nM | IC50 (second compound 3.16 µM): < 3.16 nM | IC50 (second compound 10 µM): < 3.16 nM | viability, T/C [25]: 53.3% | viability, T/C [26]: 60.8% | viability, T/C [1]: 46.3% | viability, T/C [2]: 48.5% | viability, T/C [3]: 44.6% | viability, T/C [4]: 36.1% | viability, T/C [27]: 12.7% | viability, T/C [28]: 11.1% | viability, T/C [5]: 13.1% | viability, T/C [6]: 13.4% | viability, T/C [7]: 15.7% | viability, T/C [8]: 19.4% | viability, T/C [29]: 11.2% | viability, T/C [30]: 11.9% | viability, T/C [9]: 11.8% | viability, T/C [10]: 12.6% | viability, T/C [11]: 17.2% | viability, T/C [12]: 14.6% | viability, T/C [31]: 9.58% | viability, T/C [32]: 12% | viability, T/C [13]: 12.7% | viability, T/C [14]: 12.3% | viability, T/C [15]: 14.1% | viability, T/C [16]: 15.2% | viability, T/C [33]: 12% | viability, T/C [34]: 10.5% | viability, T/C [17]: 12.8% | viability, T/C [18]: 15% | viability, T/C [19]: 15.9% | viability, T/C [20]: 16.7% | viability, T/C [35]: 14.5% | viability, T/C [36]: 11.4% | viability, T/C [21]: 15.1% | viability, T/C [22]: 15.1% | viability, T/C [23]: 17.6% | viability, T/C [24]: 13.1%

COc1c(OCCCN2CCOCC2)ccc2c3n(c(=NC(=O)c4cnc(N)nc4)nc12)CCN3 + CNC(=O)c1ccc(Nc2nc(OC3CCCC3)c3c(-c4ccc5nc(C)oc5c4)c[nH]c3n2)c(OC)c1
IC50 (second compound 0.0316 µM): 141 nM | IC50 (second compound 0.1 µM): < 3.16 nM | IC50 (second compound 0.316 µM): < 3.16 nM | IC50 (second compound 1 µM): < 3.16 nM | IC50 (second compound 3.16 µM): < 3.16 nM | IC50 (second compound 10 µM): < 3.16 nM | viability, T/C [25]: 68.3% | viability, T/C [26]: 67.3% | viability, T/C [1]: 68.2% | viability, T/C [2]: 60.7% | viability, T/C [3]: 24.9% | viability, T/C [4]: 8.91% | viability, T/C [27]: 10.9% | viability, T/C [28]: 12.2% | viability, T/C [5]: 11.8% | viability, T/C [6]: 12.3% | viability, T/C [7]: 7.7% | viability, T/C [8]: 6.41% | viability, T/C [29]: 10.6% | viability, T/C [30]: 11.2% | viability, T/C [9]: 10% | viability, T/C [10]: 9.38% | viability, T/C [11]: 6.22% | viability, T/C [12]: 5.91% | viability, T/C [31]: 9.61% | viability, T/C [32]: 10.8% | viability, T/C [13]: 10.5% | viability, T/C [14]: 9.83% | viability, T/C [15]: 7.75% | viability, T/C [16]: 4.65% | viability, T/C [33]: 9.58% | viability, T/C [34]: 11.5% | viability, T/C [17]: 10.6% | viability, T/C [18]: 9.71% | viability, T/C [19]: 8.29% | viability, T/C [20]: 7.29% | viability, T/C [35]: 12.8% | viability, T/C [36]: 11% | viability, T/C [21]: 13.6% | viability, T/C [22]: 11.9% | viability, T/C [23]: 8.72% | viability, T/C [24]: 5.52%
